Four compounds from ChEMBL document CHEMBL1152811, “Docking model of drug binding to the human ether-à-go-go potassium channel guided by tandem dimer mutant patch-clamp data: a synergic approach” (J Med Chem, 2009) can be followed below.

In general, IC50 refers to the concentration at which inhibition is half-maximal. Low readings indicate inhibition by little substance, high ones a need for much substance.

What all share (assay type): cell-based
A short description of assay [1]: Inhibition of human ERG td[wt:F656A] mutant expressed in HEK293 cells by whole cell patch clamp method. In general terms: Patch clamp records ionic current or voltage across a cell membrane.
A short description of assay [2]: Inhibition of human ERG td[wt:Y652A] mutant expressed in HEK293 cells by whole cell patch clamp method.
For assay [3], the system named is HEK293. The assay can be described thus: Binding affinity to human ERG td[wt:Y652A] mutant expressed in HEK293 cells assessed as blockade of membrane current at 0.2 uM by whole cell patch clamp method.
The test system of assay [4] is HEK293. In words: Binding affinity to human ERG td[wt:F656A] mutant expressed in HEK293 cells assessed as blockade of membrane current at 0.05 uM by whole cell patch clamp method.
In assay [5] the target is Voltage-gated inwardly rectifying potassium channel KCNH2 (Homo sapiens, UniProt Q12809). In words: Inhibition of human ERG expressed in HEK293 cells by whole cell patch clamp method.
Chain of Voltage-gated inwardly rectifying potassium channel KCNH2 (Q12809 whole entry): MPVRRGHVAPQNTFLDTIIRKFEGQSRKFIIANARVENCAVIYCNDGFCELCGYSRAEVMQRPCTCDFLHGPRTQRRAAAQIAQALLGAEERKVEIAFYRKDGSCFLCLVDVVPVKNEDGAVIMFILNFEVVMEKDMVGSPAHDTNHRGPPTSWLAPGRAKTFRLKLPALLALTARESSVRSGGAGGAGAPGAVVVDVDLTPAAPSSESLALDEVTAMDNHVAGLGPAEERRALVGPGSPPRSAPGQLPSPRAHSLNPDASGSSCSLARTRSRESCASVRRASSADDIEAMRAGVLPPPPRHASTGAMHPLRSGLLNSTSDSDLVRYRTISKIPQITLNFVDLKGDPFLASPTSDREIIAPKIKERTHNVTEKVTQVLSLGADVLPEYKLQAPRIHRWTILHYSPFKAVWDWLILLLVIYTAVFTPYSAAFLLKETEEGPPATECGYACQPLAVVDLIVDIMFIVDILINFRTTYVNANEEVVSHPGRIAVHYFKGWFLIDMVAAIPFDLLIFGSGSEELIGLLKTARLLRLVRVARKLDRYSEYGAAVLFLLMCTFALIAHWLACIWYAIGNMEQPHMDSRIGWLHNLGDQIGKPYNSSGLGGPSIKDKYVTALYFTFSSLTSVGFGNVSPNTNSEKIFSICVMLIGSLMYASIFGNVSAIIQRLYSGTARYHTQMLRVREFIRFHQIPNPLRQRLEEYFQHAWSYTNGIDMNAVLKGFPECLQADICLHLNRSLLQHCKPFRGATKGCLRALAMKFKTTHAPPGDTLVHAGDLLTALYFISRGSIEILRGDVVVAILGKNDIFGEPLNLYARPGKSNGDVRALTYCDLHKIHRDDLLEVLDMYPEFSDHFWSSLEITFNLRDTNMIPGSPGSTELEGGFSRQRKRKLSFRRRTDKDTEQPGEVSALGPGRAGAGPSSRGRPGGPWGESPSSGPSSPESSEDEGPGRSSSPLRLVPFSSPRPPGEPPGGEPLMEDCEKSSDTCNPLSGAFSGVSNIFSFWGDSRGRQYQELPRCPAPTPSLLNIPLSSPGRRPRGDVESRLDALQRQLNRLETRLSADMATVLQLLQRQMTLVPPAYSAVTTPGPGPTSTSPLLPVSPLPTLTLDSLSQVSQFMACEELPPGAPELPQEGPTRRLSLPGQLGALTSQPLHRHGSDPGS

Active and inactive are the calls of the source. No cut-off for these calls is given here.

Turning to `Cc1cccc(CCN2CCC(C(=O)c3ccc(NS(C)(=O)=O)cc3)CC2)n1`, the IC50 in assay [1] worked out at 20 nM; in assay [2], 250 nM.

Turning to `COc1cc(N)c(Cl)cc1C(=O)NC1CCN(CCCOc2ccc(F)cc2)CC1OC` (centres undefined) [CISAPRIDE], the outcome with HEK293 [3] and with HEK293 [4] was Active. For the same compound, the IC50 in assay [1] was determined as 10 nM; in assay [2], 180 nM.

With `CC(C)(C)c1ccc(C(O)CCCN2CCC(C(O)(c3ccccc3)c3ccccc3)CC2)cc1` (centres undefined) [TERFENADINE], the IC50 in assay [1] and in assay [2] was 30 nM throughout.

For `CCOc1cc(N)c(Cl)cc1C(=O)NCC1CN(Cc2ccc(F)cc2)CCO1` (centres undefined) [MOSAPRIDE], the IC50 in assay [5] turned out to be 4800 nM.
